Some test systems named below: NCI-H460; LOX IMVI; HCT-15; SNB-78; UACC-62; A498; SN12C; RPMI-8226; M19-MEL; U-251; NCI-H23; DMS-273; SNB-19; OVCAR-3; SK-OV-3; CAKI-1; SW-620; SF-539; MDA-N; MDA-MB-435.
Holding throughout (experiment): DTP human tumour cell line panel, 48 h

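Results reflect a 48-hour exposure of cells in 96-well plates to compound at five concentrations. GI50 is the concentration that inhibits growth by half.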 Activity calls are given as the source filed them. Rule as the data show it: active = GI50 up to about 1.1 µM and inactive = higher.

As a reminder, the GI50 is the concentration that inhibits growth by half. Consider `COC(=O)c1c(-c2cc(OC)c(OC)c(OC)c2)oc2ccccc2c1=O`, for which the GI50 was 76.7 µM (inactive) in the assay on NCI-H460; 37.4 µM (inactive) in the assay with LOX IMVI; 15.4 µM in the assay on HCT-15; > 100 µM (inactive) in the assay on SNB-78; 68.4 µM (inactive) in the assay on UACC-62; > 100 µM (inactive) in the assay with A498. In addition, the GI50 is > 100 µM (inactive) with SN12C; 36.2 µM (inactive) with RPMI-8226; > 100 µM (inactive) with M19-MEL; 87.3 µM (inactive) in the assay with U-251; > 100 µM (inactive) in the assay on NCI-H23; 84.9 µM (inactive) in the assay on DMS-273. Moreover, the GI50 was > 100 µM (inactive) in the assay on SNB-19; 75.9 µM (inactive) with OVCAR-3; > 100 µM (inactive) in the assay with SK-OV-3; 75.3 µM (inactive) in the assay with CAKI-1; > 100 µM (inactive) with SW-620; > 100 µM (inactive) in the assay on SF-539.
Turning to `Cc1nnc(N/N=C(/C(=O)C(C#N)c2ccccc2)C(C#N)c2ccccc2)n1N` (stereo not given), the GI50 in the assay on NCI-H460 is 1.01 µM (active); in the assay on LOX IMVI, 1.54 µM (inactive); in the assay on HCT-15 it was 16.1 µM; in the assay with SNB-78, > 51.1 µM (inactive); in the assay with UACC-62, 29.8 µM (inactive); in the assay with A498, 7.98 µM (inactive). Besides, the GI50 in the assay with SN12C was 3.13 µM (inactive); in the assay with RPMI-8226, 19.6 µM (inactive); with M19-MEL, 2.74 µM (inactive); in the assay on U-251 it was 32.6 µM (inactive); with NCI-H23, 12.9 µM (inactive); in the assay with DMS-273 it was 17.7 µM (inactive). For the same compound, the GI50 was 56 µM (inactive) with SNB-19; 20 µM (inactive) with OVCAR-3; > 61.4 µM (inactive) in the assay with SK-OV-3; 32.1 µM (inactive) in the assay on CAKI-1; 1.56 µM (inactive) with SW-620; > 48.6 µM (inactive) in the assay with SF-539.
As to `CN1C(=O)C(=O)N2c3ccc(Cl)cc3C3(c4ccccc4)N=CC12O3` (stereo not given), the GI50 in the assay with NCI-H460 is 6.03 µM (inactive); with LOX IMVI, 1.53 µM (inactive); in the assay on HCT-15, 3.24 µM; in the assay with SNB-78 it was 6.7 µM (inactive); in the assay on UACC-62, 3.94 µM (inactive); in the assay with A498, 10.8 µM (inactive). For the same compound, the GI50 in the assay with SN12C is 3.53 µM (inactive); in the assay with RPMI-8226, 2.19 µM (inactive); in the assay on M19-MEL, 3.57 µM (inactive); with U-251, 9.48 µM (inactive); in the assay on NCI-H23, 4.13 µM (inactive); in the assay with DMS-273 it was 4.35 µM (inactive). Also, the GI50 with SNB-19 was 12.9 µM (inactive); in the assay with OVCAR-3, 4.38 µM (inactive); in the assay with SK-OV-3, 10.1 µM (inactive); with CAKI-1 it was 5.13 µM (inactive); in the assay on SW-620, 3.79 µM (inactive); in the assay with SF-539, 3.27 µM (inactive).
For `O=c1[nH]cc(C(F)(C(F)(F)F)C(F)(F)F)c(=O)[nH]1`, the GI50 in the assay on NCI-H460 is > 100 µM (inactive); in the assay with LOX IMVI, > 100 µM (inactive); in the assay with HCT-15, above 100 µM; in the assay on SNB-78, > 100 µM (inactive); in the assay on UACC-62, > 100 µM (inactive); in the assay with A498, > 100 µM (inactive). Moreover, the GI50 in the assay with SN12C, in the assay on RPMI-8226, with M19-MEL, in the assay with U-251, in the assay with NCI-H23 and in the assay on DMS-273 was > 100 µM (inactive) in each case. Besides, the GI50 in the assay on SNB-19, with OVCAR-3, in the assay on SK-OV-3, with CAKI-1, in the assay on SW-620 and in the assay on SF-539 was > 100 µM (inactive) in each case.
On to `COc1ccc(O)c(C#N)c1C#N`, for which the GI50 with NCI-H460 is > 100 µM (inactive); with LOX IMVI it was < 0.01 µM (active); in the assay on HCT-15 it was above 100 µM; with SNB-78, > 100 µM (inactive); in the assay with UACC-62, > 100 µM (inactive); with A498, > 100 µM (inactive). In addition, the GI50 in the assay with SN12C, in the assay with RPMI-8226, in the assay on M19-MEL, in the assay on U-251, in the assay with NCI-H23 and in the assay with DMS-273 was > 100 µM (inactive) in each case. Besides, the GI50 with SNB-19, in the assay with OVCAR-3, in the assay on SK-OV-3, with CAKI-1, with SW-620 and in the assay with SF-539 was > 100 µM (inactive) throughout.
On to `CO[C@@]12[C@H](COC(N)=O)C3=C(C(=O)C(C)=C(N)C3=O)N1C[C@H]1[C@@H]2N1C` (stereo not given in full) [PORFIROMYCIN], for which the GI50 is 0.128 µM (active) in the assay with NCI-H460; 0.794 µM (active) in the assay on LOX IMVI; 2.57 µM in the assay on HCT-15; 9.68 µM (inactive) with SNB-78; 0.466 µM (active) with UACC-62; 6.31 µM (inactive) in the assay with A498. Moreover, the GI50 is 0.782 µM (active) in the assay with SN12C; 8.41 µM (inactive) in the assay with RPMI-8226; 2.74 µM (inactive) in the assay on M19-MEL; 1.19 µM (inactive) in the assay with U-251; 0.506 µM (active) with NCI-H23; 0.401 µM (active) with DMS-273. The GI50 with MDA-N is 12.5 µM (inactive); in the assay on SNB-19, 2.35 µM (inactive); in the assay with OVCAR-3, 6.76 µM (inactive); in the assay with SK-OV-3 it was 4.62 µM (inactive); in the assay with CAKI-1, 0.948 µM (active); in the assay on SW-620 it was 1.87 µM (inactive). The GI50 with SF-539 is 3.56 µM (inactive); with MDA-MB-435, 12.3 µM (inactive).

The record behind these values is ChEMBL document CHEMBL1201862, “PubChem BioAssay data set” (2004).
